# In patent publication US11331314B2, “Amine substituted triazole derivatives and uses thereof” (Bayer Pharma Aktiengesellschaft, priority 2017, dated 2022):
# pIC50: −log10 of the molar value.
# How the values were obtained:
# human V1a receptor = human V1a receptor (Homo sapiens, UniProt P37288); test: Cellular in vitro assay for determining vasopressin receptor activity, V1a receptor cell line (photoprotein luminescence); assay type: cell-based; settings: for pIC50: CHO cell line transfected with the human V1a receptor, agonist [Arg8]-vasopressin at EC50 concentration, read-out: IC50 hV1a; for ratio IC50 hV2/hV1a: selectivity ratio of the cellular IC50 values
# Chain of human V1a receptor (P37288 whole entry): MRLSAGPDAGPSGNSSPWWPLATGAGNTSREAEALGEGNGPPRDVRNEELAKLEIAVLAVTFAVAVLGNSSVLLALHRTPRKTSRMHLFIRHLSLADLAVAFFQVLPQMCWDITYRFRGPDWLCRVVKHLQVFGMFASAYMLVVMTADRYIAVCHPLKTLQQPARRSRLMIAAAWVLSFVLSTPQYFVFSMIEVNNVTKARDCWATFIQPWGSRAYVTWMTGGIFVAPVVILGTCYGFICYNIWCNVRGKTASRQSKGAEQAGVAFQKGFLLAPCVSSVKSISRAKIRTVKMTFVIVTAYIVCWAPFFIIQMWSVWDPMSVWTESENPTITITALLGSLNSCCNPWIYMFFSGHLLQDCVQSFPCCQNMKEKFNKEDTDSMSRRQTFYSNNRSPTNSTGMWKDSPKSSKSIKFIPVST
# Procedure, shortened: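 CHO K1 cells stably expressing human V1a receptor with aequorin photoprotein, loaded overnight with coelenterazine. Compounds preincubated 10 min at various concentrations, then challenged with [Arg^8]-vasopressin at EC50 concentration. Calcium-driven luminescence read immediately; IC50 values derived.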
# human V2 receptor = biological target: T1, human V2 receptor (Homo sapiens, UniProt P30518); test: Cellular in vitro assay for determining vasopressin receptor activity, V2 receptor cell line (CRE-luciferase); assay type: cell-based; settings: CHO cell line transfected with the human V2 receptor; agonist [Arg8]-vasopressin at EC50 concentration; read-out: IC50 hV2
# T1 construct: expressed in transfected cells; host or cells: CHO K1 (ATCC) expressing firefly luciferase under a CRE-responsive promoter
# T1 sequence (P30518 whole entry): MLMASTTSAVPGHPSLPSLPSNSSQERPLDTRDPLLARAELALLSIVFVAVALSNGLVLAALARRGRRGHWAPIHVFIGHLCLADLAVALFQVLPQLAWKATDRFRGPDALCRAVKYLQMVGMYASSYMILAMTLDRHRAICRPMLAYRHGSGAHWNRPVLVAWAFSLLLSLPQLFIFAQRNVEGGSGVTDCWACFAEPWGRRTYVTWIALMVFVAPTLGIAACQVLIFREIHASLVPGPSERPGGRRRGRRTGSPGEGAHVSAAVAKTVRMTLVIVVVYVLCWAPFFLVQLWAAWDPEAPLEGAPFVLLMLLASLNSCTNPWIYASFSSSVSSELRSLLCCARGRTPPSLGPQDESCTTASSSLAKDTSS
SMILES,pIC50 (human V1a receptor),ratio IC50 hV2/hV1a (human V1a receptor),pIC50 (human V2 receptor)
"NCCNc1nc(Cn2nc(-c3ccc(Cl)cc3)n(C[C@H](O)C(F)(F)F)c2=O)nn1-c1ccccc1Cl [Example 70, 2-({5-[(2-Aminoethyl)amino]-1-(2-chlorophenyl)-1H-1,2,4-triazol-3-yl}methyl)-5-(4-chlorophenyl)-4-[(2S)-3,3,3-trifluoro-2-hydroxypropyl]-2,4-dihydro-3H-1,2,4-triazol-3-one]",9.05,24.4,7.66
"O=C1CN(c2nc(Cn3nc(-c4ccc(Cl)cc4)n(C[C@H](O)C(F)(F)F)c3=O)nn2-c2ncccc2Cl)CCN1 [Example 97, 4-[3-({3-(4-Chlorophenyl)-5-oxo-4-[(2S)-3,3,3-trifluoro-2-hydroxypropyl]-4,5-dihydro-1H-1,2,4-triazol-1-yl}methyl)-1-(3-chloropyridin-2-yl)-1H-1,2,4-triazol-5-yl]piperazin-2-one]",9.25,176.9,7.00
"C[C@@H](O)CNc1nc(Cn2nc(-c3ccc(Cl)cc3)n(C[C@H](O)C(F)(F)F)c2=O)nn1-c1ccccc1Cl [Example 49, 5-(4-Chlorophenyl)-2-{[1-(2-chlorophenyl)-5-{[(2R)-2-hydroxypropyl]amino}-1H-1,2,4-triazol-3-yl]methyl}-4-[(2S)-3,3,3-trifluoro-2-hydroxypropyl]-2,4-dihydro-3H-1,2,4-triazol-3-one]",9.20,3.1,8.71
"CNc1nc(Cn2nc(-c3ccc(Cl)cc3)n(C[C@H](O)C(F)(F)F)c2=O)nn1-c1cccc(Cl)c1 [Example 118, 5-(4-Chlorophenyl)-2-{[1-(3-chlorophenyl)-5-(methylamino)-1H-1,2,4-triazol-3-yl]methyl}-4-[(2S)-3,3,3-trifluoro-2-hydroxypropyl]-2,4-dihydro-3H-1,2,4-triazol-3-one]",7.78,0.1,8.98
"O=c1n(Cc2nc(N3CCCC3)n(-c3cccc(Cl)c3)n2)nc(-c2ccc(Cl)cc2)n1C[C@H](O)C(F)(F)F [Example 117, 5-(4-Chlorophenyl)-2-{[1-(3-chlorophenyl)-5-(pyrrolidin-1-yl)-1H-1,2,4-triazol-3-yl]methyl}-4-[(2S)-3,3,3-trifluoro-2-hydroxypropyl]-2,4-dihydro-3H-1,2,4-triazol-3-one]",7.18,0.3,7.72
"O=c1n(Cc2nc(N3CCS(=O)(=O)CC3)n(-c3ccccc3F)n2)nc(-c2ccc(Cl)cc2)n1C[C@H](O)C(F)(F)F [Example 90, 5-(4-Chlorophenyl)-2-{[5-(1,1-dioxidothiomorpholin-4-yl)-1-(2-fluorophenyl)-1H-1,2,4-triazol-3-yl]methyl}-4-[(2S)-3,3,3-trifluoro-2-hydroxypropyl]-2,4-dihydro-3H-1,2,4-triazol-3-one]",8.06,28.1,6.61
"O=C1CN(c2nc(Cn3nc(-c4ccc(Cl)cc4)n(C[C@H](O)C(F)(F)F)c3=O)nn2-c2ccccc2F)CCN1 [Example 89, 4-[3-({3-(4-Chlorophenyl)-5-oxo-4-[(2S)-3,3,3-trifluoro-2-hydroxypropyl]-4,5-dihydro-1H-1,2,4-triazol-1-yl}methyl)-1-(2-fluorophenyl)-1H-1,2,4-triazol-5-yl]piperazin-2-one]",8.26,14.8,7.09
"CC(N)(CNc1nc(Cn2nc(-c3ccc(Cl)cc3)n(C[C@H](O)C(F)(F)F)c2=O)nn1-c1ccccc1Cl)C(F)(F)F (mixture of isomers) [Example 27, 2-{[5-{[2-Amino-3,3,3-trifluoro-2-methylpropyl]amino}-1-(2-chlorophenyl)-1H-1,2,4-triazol-3-yl]methyl}-5-(4-chlorophenyl)-4-[(2S)-3,3,3-trifluoro-2-hydroxypropyl]-2,4-dihydro-3H-1,2,4-triazol-3-one]",9.46,3.7,8.89
"O=c1n(Cc2nc(N3CCCC3)n(-c3ccccc3Cl)n2)nc(-c2ccc(Cl)cc2)n1C[C@H](O)C(F)(F)F [Example 87, 5-(4-Chlorophenyl)-2-{[1-(2-chlorophenyl)-5-(pyrrolidin-1-yl)-1H-1,2,4-triazol-3-yl]methyl}-4-[(2S)-3,3,3-trifluoro-2-hydroxypropyl]-2,4-dihydro-3H-1,2,4-triazol-3-one]",8.62,11.1,7.57

# Continued, values first:
pIC50 (human V1a receptor),ratio IC50 hV2/hV1a (human V1a receptor),pIC50 (human V2 receptor),SMILES
9.49,6.8,8.66,"COCCNc1nc(Cn2nc(-c3ccc(Cl)cc3)n(C[C@H](O)C(F)(F)F)c2=O)nn1-c1ccccc1Cl [Example 79, 5-(4-Chlorophenyl)-2-({1-(2-chlorophenyl)-5-[(2-methoxyethyl)amino]-1H-1,2,4-triazol-3-yl}methyl)-4-[(2S)-3,3,3-trifluoro-2-hydroxypropyl]-2,4-dihydro-3H-1,2,4-triazol-3-one]"
8.33,1.8,8.09,"CN(C)c1nc(Cn2nc(-c3ccc(Cl)cc3)n(C[C@H](O)C(F)(F)F)c2=O)nn1-c1cccc(F)c1 [Example 120, 5-(4-Chlorophenyl)-2-{[5-(dimethylamino)-1-(3-fluorophenyl)-1H-1,2,4-triazol-3-yl]methyl}-4-[(2S)-3,3,3-trifluoro-2-hydroxypropyl]-2,4-dihydro-3H-1,2,4-triazol-3-one]"
9.14,10.1,8.14,"O=C(CNc1nc(Cn2nc(-c3ccc(Cl)cc3)n(C[C@H](O)C(F)(F)F)c2=O)nn1-c1ccccc1Cl)NCC(F)(F)F [Example 40, N^2-[1-(2-Chlorophenyl)-3-({3-(4-chlorophenyl)-5-oxo-4-[(2S)-3,3,3-trifluoro-2-hydroxypropyl]-4,5-dihydro-1H-1,2,4-triazol-1-yl}methyl)-1H-1,2,4-triazol-5-yl]-N-(2,2,2-trifluoroethyl)glycinamide]"
8.41,31.5,6.91,"CC(C)(CNc1nc(Cn2nc(-c3ccc(Cl)cc3)n(C[C@H](O)C(F)(F)F)c2=O)nn1CCC(F)(F)F)NS(C)(=O)=O [Example 102, N-(1-{[3-({3-(4-Chlorophenyl)-5-oxo-4-[(2S)-3,3,3-trifluoro-2-hydroxypropyl]-4,5-dihydro-1H-1,2,4-triazol-1-yl}methyl)-1-(3,3,3-trifluoropropyl)-1H-1,2,4-triazol-5-yl]amino}-2-methylpropan-2-yl)methanesulfonamide]"
9.09,11.0,8.05,"CC(=O)N1CCN(c2nc(Cn3nc(-c4ccc(Cl)cc4)n(C[C@H](O)C(F)(F)F)c3=O)nn2-c2ccccc2Cl)CC1 [Example 75, 2-{[5-(4-Acetylpiperazin-1-yl)-1-(2-chlorophenyl)-1H-1,2,4-triazol-3-yl]methyl}-5-(4-chlorophenyl)-4-[(2S)-3,3,3-trifluoro-2-hydroxypropyl]-2,4-dihydro-3H-1,2,4-triazol-3-one]"
8.64,2.1,8.32,"COC(C)(C)CNc1nc(Cn2nc(-c3ccc(Cl)cc3)n(C[C@H](O)C(F)(F)F)c2=O)nn1-c1ccccc1Cl [Example 4, 5-(4-Chlorophenyl)-2-({1-(2-chlorophenyl)-5-[(2-methoxy-2-methylpropyl)amino]-1H-1,2,4-triazol-3-yl}methyl)-4-[(2S)-3,3,3-trifluoro-2-hydroxypropyl]-2,4-dihydro-3H-1,2,4-triazol-3-one]"
9.05,18.8,7.78,"NC(=O)[C@@H]1CC(F)(F)CN1c1nc(Cn2nc(-c3ccc(Cl)cc3)n(C[C@H](O)C(F)(F)F)c2=O)nn1-c1ccccc1Cl [Example 9, 1-[1-(2-Chlorophenyl)-3-({3-(4-chlorophenyl)-5-oxo-4-[(2S)-3,3,3-trifluoro-2-hydroxypropyl]-4,5-dihydro-1H-1,2,4-triazol-1-yl}methyl)-1H-1,2,4-triazol-5-yl]-4,4-difluoro-L-prolinamide]"
8.87,1.5,8.70,"COCCNc1nc(Cn2nc(-c3ccc(Cl)cc3)n(C[C@H](O)C(F)(F)F)c2=O)nn1-c1cccc(F)c1 [Example 116, 5-(4-Chlorophenyl)-2-({1-(3-fluorophenyl)-5-[(2-methoxyethyl)amino]-1H-1,2,4-triazol-3-yl}methyl)-4-[(2S)-3,3,3-trifluoro-2-hydroxypropyl]-2,4-dihydro-3H-1,2,4-triazol-3-one]"
9.25,25.7,7.84,"O=c1n(Cc2nc(N3CCOCC3)n(-c3ccccc3Cl)n2)nc(-c2ccc(Cl)cc2)n1C[C@H](O)C(F)(F)F [Example 83, 5-(4-Chlorophenyl)-2-{[1-(2-chlorophenyl)-5-(morpholin-4-yl)-1H-1,2,4-triazol-3-yl]methyl}-4-[(2S)-3,3,3-trifluoro-2-hydroxypropyl]-2,4-dihydro-3H-1,2,4-triazol-3-one]"
9.36,5.5,8.62,"CC(=O)NCCNc1nc(Cn2nc(-c3ccc(Cl)cc3)n(C[C@H](O)C(F)(F)F)c2=O)nn1-c1ccccc1Cl [Example 71, N-(2-{[1-(2-Chlorophenyl)-3-({3-(4-chlorophenyl)-5-oxo-4-[(2S)-3,3,3-trifluoro-2-hydroxypropyl]-4,5-dihydro-1H-1,2,4-triazol-1-yl}methyl)-1H-1,2,4-triazol-5-yl]amino}ethyl)acetamide]"
8.25,2.1,7.93,"O=c1n(Cc2nc(N3CCCC3)n(-c3cccc(F)c3)n2)nc(-c2ccc(Cl)cc2)n1C[C@H](O)C(F)(F)F [Example 88, 5-(4-Chlorophenyl)-2-{[1-(3-fluorophenyl)-5-(pyrrolidin-1-yl)-1H-1,2,4-triazol-3-yl]methyl}-4-[(2S)-3,3,3-trifluoro-2-hydroxypropyl]-2,4-dihydro-3H-1,2,4-triazol-3-one]"
